The record followed here is patent US12037458B2, “Process and premix for incorporating optical brighteners into a polymeric composition” (Elkem Silicones USA Corp., priority 2019, dated 2024).

Data set [1] is described as follows: Solubility of different optical brighteners in GLYMO, heated mixing (MM2). To be noted: for # of particles observed MM2 / Brightness MM2 / Form a clear solution? Mixing Method 2 / Amount of undissolved OBA MM2: in GLYMO; for # of particles observed MM2 / Brightness MM2 / Amount of undissolved OBA MM2: heated mixing 50° C. (MM2); for Form a clear solution? Mixing Method 2: heated mixing 50° C. under nitrogen (MM2). Format: physicochemical.

Data set [2] is described as follows: Solubility of Tinopal OB CO in different silanes / titanate (room-temperature mixing, black light inspection). To be noted: for Forms a clear solution? / Amount of undissolved Tinopal ® OB CO: 0.072 g Tinopal OB CO in 10 g of compound; for Forms a clear solution?: mixed at room temperature, stored overnight; for Amount of undissolved Tinopal ® OB CO: room temperature; for # of particles observed: OBA particles, naked eye under black light; for Brightness: drop of mixture between glass plates under black light; for Solubility of Tinopal OB CO in the compound (in words): summary of Table 2.

Data set [3] is described as follows: Saturation of optical brightener in GLYMO. In kind it is physicochemical. On the procedure:
To determine the saturation level of optical brightener in GLYMO, increasing amounts of Tinopal® OB CO were mixed with GLYMO (0.25%, 0.5%, 1.0%, 2.0%, 3.0% Tinopal® OB CO), heated at 50° C. for one hour and then cooled while mixing.

Data set [4] can be described thus: Solubility of different optical brighteners in GLYMO, RT mixing (MM1).
The mark [5] stands for this setting: heated at 50° C. for one hour, cooled while mixing.

Where only a bound is given, the exact number is not on record here.

Regarding `C(=Cc1ccc(-c2nc3ccccc3o2)cc1)c1ccc(-c2nc3ccccc3o2)cc1` [Benetex ® OB-1 HP, benzoxazole, 2,2′-(1,2-ethenediyldi-4,1-phenylene)bis-], in data set [1], the “# of particles observed MM2” value is reported as above 300, the “Brightness MM2” value is on record as “high” and the “Form a clear solution? Mixing Method 2” value is listed as “no”.

For `O=S(=O)(O)c1ccccc1C=Cc1ccc(-c2ccc(C=Cc3ccccc3S(=O)(=O)O)cc2)cc1` [Benetex ® OB-M1, benzenesulfonic acid, 2,2′-([1,1′-biphenyl]-4,4′-diyldi-2,1-ethenediyl)bis-], in data set [1], the “# of particles observed MM2” value is given as above 100, the “Brightness MM2” value is on record as “low” and the “Form a clear solution? Mixing Method 2” value was “no”.

Consider `C=C(C)C(=O)OCCC[Si](OC)(OC)OC` [MEMO], for which, in data set [2], the “Forms a clear solution?” value is recorded as “Yes”, the “Amount of undissolved Tinopal ® OB CO” value is on record as “zero”, the “# of particles observed” value was 0 and the Brightness result was “high”. In addition, the “Solubility of Tinopal OB CO in the compound (in words)” value in data set [2] is on record as “relatively good solubility”.

Consider `CC(C)(C)c1ccc2oc(-c3ccc(-c4nc5cc(C(C)(C)C)ccc5o4)s3)nc2c1` [Tinopal ® OB CO], for which, in data set [3] (setting [5]), the “Concentration in GLYMO at which homogenously distributed” value is listed as “less than 1.0%” and the “Concentration in GLYMO at which visible particles (agglomerates) were present” value is listed as at least 1.0%. In addition, the “Average particle size of visible particles (agglomerates)” value in data set [3] (in GLYMO at concentrations of 1.0% or greater) is at least 50 μm. Further, in data set [4] (in GLYMO, RT mixing (MM1)), the “Amount of undissolved OBA MM1” value is reported as “low”. Besides, the “Amount of undissolved optical brightener” value in data set [4] (in GLYMO, room temperature) is given as “low”. Also, the “Effect of heating (MM2) on solubility in GLYMO” value in data set [1] (MM2 versus MM1) is listed as “improved the solubility”. Also, in data set [1], the “# of particles observed MM2” value is recorded as “zero”, the “Amount of undissolved OBA MM2” value is on record as “Zero”, the “Brightness MM2” value is “high” and the “Form a clear solution? Mixing Method 2” value was “Yes”. Moreover, the “Amount of undissolved OBA MM2” value in data set [1] (listed as Tinopal® OB CO) is recorded as “no undissolved particles”.

Consider `CCN(CC)c1nc(Nc2ccc(C=Cc3ccc(Nc4nc(Nc5cc(S(=O)(=O)[O-])ccc5S(=O)(=O)[O-])nc(N(CC)CC)n4)cc3S(=O)(=O)[O-])c(S(=O)(=O)[O-])c2)nc(Nc2cc(S(=O)(=O)[O-])ccc2S(=O)(=O)[O-])n1.[Na+].[Na+].[Na+].[Na+].[Na+].[Na+]` [Tinopal ® SFP], for which the “Forms a clear solution?” value in data set [4] (0.072 g optical brightener in 10 g GLYMO, room temperature) is given as “No”. In addition, in data set [4] (in GLYMO, RT mixing (MM1)), the “# of particles observed MM1” value was above 300, the “Amount of undissolved OBA MM1” value was “high”, the “Brightness MM1” value is given as “low” and the “Form a clear solution? Mixing Method 1” value was “no”. Besides, the “# of particles observed” value in data set [4] (in GLYMO, naked eye under black light) is given as above 300. In addition, in data set [4] (in GLYMO, room temperature), the “Amount of undissolved optical brightener” value is recorded as “high”. Moreover, in data set [4] (in GLYMO, under black light), the Brightness result is “low”. For the same compound, in data set [1], the “# of particles observed MM2” value is recorded as 10-20, the “Amount of undissolved OBA MM2” value is given as “Low”, the “Brightness MM2” value was “low” and the “Form a clear solution? Mixing Method 2” value is listed as “No”.

Turning to `C=C[Si](OC)(OC)OC` [VTMO, vinyltrimethoxysilane], in data set [2], the “Forms a clear solution?” value is on record as “Yes”, the “Amount of undissolved Tinopal ® OB CO” value was “low”, the “# of particles observed” value is 0 and the Brightness result is reported as “high”. For the same compound, in data set [2], the “Solubility of Tinopal OB CO in the compound (in words)” value is recorded as “relatively good solubility”.
